The text below walks through data of patent publication US20180353501A1 (Arvinas, Inc., priority 2017, published 2018).

Assay [1] has as its target T1, p38α:PROTAC:VHL ternary complex (Homo sapiens, UniProt P40337+Q16539).
T1 construct: encodes a region spanning amino acids 2-360 of the human p38α kinase; made in house; host or cells: E. coli (BL21-CodonPlus(DE3)-RIPL for p38α; BL21(DE3) for GST-VBC)
Put plainly: In vitro ternary complex pull-down with GST-VBC bait, purified p38α. Format: binding. Here is the method: (§1) FIGS. 14A, 14B, and 14C. p38α selectivity is discriminated by ternary complex formation. (A) Only p38α incubated in the presence of exemplary compound 50 can be immunoprecipitated with GST-tagged VHL/EloB/EloC (VBC). Immobilized VBC was used as a bait to trap purified p38α in the presence of vehicle (DMSO), compound 50, or compound 46 (represented in micromolar concentrations). The rightmost lane represents a 1:25 dilution of initial input protein used in each pull-down. (B) Proximity-based AlphaLISA assay detects significant p38α:compound 50:VHL ternary complex, but no p38α:compound 46:VHL ternary complex. His-p38α and GST-VBC were incubated in the presence of increasing concentrations of compound 50 and compound 46 and the extent of ternary complex formation was assessed by excitation with incident light with 1=680 nm and capture of the emission light at 1=615 nm. Error bars represent the SD from quadruplicate experiments. […] FLAGimmunoprecipitated lysates were separated by SDS-PAGE and assessed via western blots detecting HA (Ub). […]
(§2) Following this logic, to the present disclosure seeks to describe the selectivity of exemplary compound 50 for p38α at the ternary complex level through the use of an in vitro ternary complex pull-down assay. […] Similarly, exemplary PROTACs 46 and 50 were evaluated in a proximity-based luminescence assay (AlphaLISA) to detect ternary complex formation. […]

Assay [2] concerns the target T2, His-p38α:PROTAC:GST-VBC ternary complex (Homo sapiens, UniProt P40337+Q16539).
T2 construct: encodes a region spanning amino acids 2-360 of the human p38α kinase; made in house; host or cells: E. coli (BL21-CodonPlus(DE3)-RIPL for p38α; BL21(DE3) for GST-VBC)
Nature of the assay: AlphaLISA ternary complex assay. Format: binding. Conditions: increasing PROTAC concentrations; VBC and p38α 150 nM. Here is the method: as §1, §2
(Alpha assays give light when donor and acceptor beads are brought close together.)

T2 sequence (Q16539 2-360 limits assumed): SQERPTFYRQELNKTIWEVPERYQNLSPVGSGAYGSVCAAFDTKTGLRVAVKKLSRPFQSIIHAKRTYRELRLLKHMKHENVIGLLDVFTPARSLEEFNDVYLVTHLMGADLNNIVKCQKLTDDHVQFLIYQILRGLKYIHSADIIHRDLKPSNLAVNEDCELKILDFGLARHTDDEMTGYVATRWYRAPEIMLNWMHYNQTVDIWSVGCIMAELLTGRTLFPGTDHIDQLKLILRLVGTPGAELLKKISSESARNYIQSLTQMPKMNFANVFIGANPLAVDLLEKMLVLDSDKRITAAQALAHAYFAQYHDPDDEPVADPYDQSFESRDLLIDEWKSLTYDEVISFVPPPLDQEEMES
T2 sequence (P40337 whole entry, the tested form may be a part): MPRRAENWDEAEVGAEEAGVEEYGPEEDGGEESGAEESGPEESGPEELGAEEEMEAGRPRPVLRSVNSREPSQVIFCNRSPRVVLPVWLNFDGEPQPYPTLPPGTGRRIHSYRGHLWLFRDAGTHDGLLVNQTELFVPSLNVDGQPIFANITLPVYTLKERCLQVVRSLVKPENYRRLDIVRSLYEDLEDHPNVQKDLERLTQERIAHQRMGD
T2 sequence (Q15370 whole entry partner, the tested form may be a part): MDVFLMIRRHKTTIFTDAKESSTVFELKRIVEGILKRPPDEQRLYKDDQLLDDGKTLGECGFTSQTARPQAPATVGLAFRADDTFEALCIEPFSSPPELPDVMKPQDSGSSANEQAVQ
T2 sequence (Q15369 whole entry partner, the tested form may be a part): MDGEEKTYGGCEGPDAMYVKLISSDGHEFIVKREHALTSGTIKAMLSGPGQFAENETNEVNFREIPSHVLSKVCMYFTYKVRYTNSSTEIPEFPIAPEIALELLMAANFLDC
T1 sequence (Q16539 2-360 limits assumed): as the sequence (Q16539 2-360 limits assumed) above
T1 sequence (P40337 whole entry, the tested form may be a part): as the sequence (P40337 whole entry, the tested form may be a part) above
T1 sequence (Q15370 whole entry partner, the tested form may be a part): as the sequence (Q15370 whole entry partner, the tested form may be a part) above
T1 sequence (Q15369 whole entry partner, the tested form may be a part): as the sequence (Q15369 whole entry partner, the tested form may be a part) above

With `COc1cc2c(Oc3ccc(NC(=O)C4(C(=O)Nc5ccc(F)cc5)CC4)cc3F)ccnc2cc1OCCOCCOCCOc1cc(-c2scnc2C)ccc1CNC(=O)[C@@H]1C[C@@H](O)CN1C(=O)[C@H](C(C)C)N1Cc2ccccc2C1=O` [compound 46], the “enrichment of purified p38α on GST-VBC bait” value in assay [1] is recorded as “no detectable enrichment”. For the same molecule, the “p38α:PROTAC:VHL ternary complex formation (AlphaLISA)” value in assay [2] is “no such ternary species is detectable”.
On to `COc1cc2c(Oc3ccc(NC(=O)C4(C(=O)Nc5ccc(F)cc5)CC4)cc3F)ccnc2cc1OCCCCOCCCCOCC(=O)N[C@H](C(=O)N1C[C@H](O)C[C@H]1C(=O)NCc1ccc(-c2scnc2C)cc1)C(C)(C)C` [compound 50, N-(3-fluoro-4-((7-(4-(4-(2-(((S)-1-((2S,4R)-4-hydroxy-2-((4-(4-methylthiazol-5-yl)benzyl)carbamoyl)pyrrolidin-1-yl)-3,3-dimethyl-1-oxobutan-2-yl)amino)-2-oxoethoxy)butoxy)buto-xy)-6-methoxyquinolin-4-yl)oxy)phenyl)-N-(4-fluorophenyl)cyclopropane-1,1-dicarboxa-mide], for which the “enrichment of purified p38α on GST-VBC bait” value in assay [1] is recorded as “substantial enrichment of purified p38α”. Besides, the “p38α:PROTAC:VHL ternary complex formation (AlphaLISA)” value in assay [2] is “displays a ternary VHL:PROTAC:p38α complex”.
